Ends that are not written are not given here.
Tests used:
C57BL6 mice [1] = assay: Potassium-induced SCA protocol, nicotinamide during CPR plus TAT-PTEN9c after ROSC (Example 3); type: in vivo, mouse; settings: about 12 minute down time
Protocol: The benefit of co-administration of nicotinamide (NAM) with TAT-PTEN9c was evaluated. C57BL6 mice were subjected to an established potassium-induced 8-minute SCA protocol. Nicotinamide (Vitamin B3) was administered during CPR and TAT-PTEN9c was administered after ROSC with about a 12 minute down time for each group.

C57BL6 mice [2] = assay: Potassium-induced 8-minute SCA protocol, timing of administration during CPR or after ROSC (Example 2); type: in vivo, mouse; settings: for MAP: 7.5 mg/kg IV administered after ROSC
Protocol: To determine timing of modified peptide administration, TAT-PTEN9c was administrated during CPR or after ROSC. C57BL6 mice were subjected to an established potassium-induced 8-minute SCA protocol (Li, et al. (2015) Am. J. Physiol. Heart Circ. Physiol. 308:H1414-22). Mean arterial blood pressure (MAP) was recorded until 4 hours after successful CPR. TAT-PTEN9c (7.5 mg/kg) or saline (NS) was given intravenously (IV) during CPR and immediately after ROSC.

C57BL6 mice [3] = assay: Potassium-induced 8-minute SCA protocol, peptide IV immediately after ROSC (Example 1); type: in vivo, mouse
Text: (§1) Mouse cardiomyocytes were isolated from 1-3 day old mouse pups according to known methods (Zhu, et al. (2014) PLoS One 9:e95622). Western blot analysis was used to determine the efficacy of a representative peptide of the invention (TAT-PTEN9c) for enhancing Akt phosphorylation in mouse cardiomyocytes exposed to oxidant (H2O2) or IGF-1. C57BL6 mice were subjected to an established potassium-induced 8-minute SCA protocol (Li, et al. (2015) Am. J. Physiol. Heart Circ. Physiol. 308:H1414-22). Mean arterial blood pressure (MAP), end-tidal CO2 (EtCO2), body temperature and electrocardiogram (ECG) were recorded until […] after successful cardiopulmonary resuscitation (CPR). TAT-PTEN9c (7.5 mg/kg) or saline was given intravenously (IV) immediately after ROSC. A mouse survival curve was generated by Kaplan-Meyer analysis. IV administration of TAT-GFP was used to measure the kinetics of heart and brain tissue TAT protein delivery.

[4] = test system: Akt phosphorylation in mouse cardiomyocytes; assay: Western blot of Akt phosphorylation in mouse cardiomyocytes exposed to H2O2 or IGF-1; type: cell-based
Text: as §1

PTEN = PTEN (Homo sapiens, UniProt P60484); settings: cited from earlier work
cell death = settings: Zhu et al. 2014, cited from earlier work
mouse model of SCA [5] = assay: Blood sorbitol and taurine concentrations in mouse model of SCA; type: in vivo
Text: Metabolism alteration and energy production are critical outcomes following SCA. Using a mouse model of SCA (Li, et al. (2015) Am. J. Physiol. Heart Circ. Physiol. 308:H1414-22), several metabolic compounds were identified as diagnostic markers for use in guiding the selection of treatment protocols (e.g., active cooling, therapeutic hypothermia, or modified PDZ binding domain peptide therapies).

mouse model of SCA [6] = settings: Li et al. 2015; cited from earlier work
[7] = 240 minutes, 7.5 mg/kg IV immediately after ROSC

PTEN, sequence (P60484 whole entry, species assumed): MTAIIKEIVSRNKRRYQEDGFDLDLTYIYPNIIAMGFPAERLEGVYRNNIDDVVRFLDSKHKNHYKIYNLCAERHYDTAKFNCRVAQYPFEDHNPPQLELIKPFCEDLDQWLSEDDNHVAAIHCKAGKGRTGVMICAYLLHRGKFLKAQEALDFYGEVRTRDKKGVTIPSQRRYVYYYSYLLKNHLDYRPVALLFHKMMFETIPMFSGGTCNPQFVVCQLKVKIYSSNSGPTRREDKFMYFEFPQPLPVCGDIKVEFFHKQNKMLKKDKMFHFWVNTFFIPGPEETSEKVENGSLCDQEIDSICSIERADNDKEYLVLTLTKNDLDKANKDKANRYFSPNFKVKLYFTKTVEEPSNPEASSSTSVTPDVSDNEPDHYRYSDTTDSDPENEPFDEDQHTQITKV

Compound: NC(=O)c1cccnc1 [nicotinamide]
- survival time of all mice (C57BL6 mice [1]): less than 1 hours

Compound: YGRKKRRQRRRDQHSQITKV (not fully specified (C-terminus)) [TAT-PTEN9c, 20-residue peptide: Tat transduction domain plus C-terminal 9 residues of mouse PTEN]
- resuscitation rate (C57BL6 mice [2]; 7.5 mg/kg IV administered during CPR): no improvement
- MAP (C57BL6 mice [2]; 30 minutes after ROSC): 65.2±1.1 mmHg
- MAP (C57BL6 mice [2]; 4 hours after ROSC, p<0.05 vs NS): 49.9±0.7 mmHg
- brain tissue sorbitol content (C57BL6 mice [3]; 15 (R15) and 30 (R30) minutes after ROSC, vs saline control (NS), FIG. 3): significantly decreased
- EtCO2 (C57BL6 mice [3]; [7]): 36.2 ± 6.7 mmHg
- Heart Rate (C57BL6 mice [3]; [7]): 502.0 ± 62.2 bpm
- MAP (C57BL6 mice [3]; [7]): 52.7 ± 9.3 mmHg
- Survival (%) (C57BL6 mice [3]; [7]): 66.7%
- survival of mice after cardiac arrest (C57BL6 mice [3]; administered immediately after ROSC, vs saline control, FIG. 4): significantly improves survival
- time to Akt activation after administration ([4]; FIG. 1C): ≤ 10 min
- Akt activation in response to H2O2 ([4]; H2O2, concentration-dependent, FIG. 1A): enhances Akt activation
- Akt activation in response to IGF-1 ([4]; IGF-1, concentration-dependent, FIG. 1B): enhances Akt activation

Compound: O=C(O)c1ncccc1O.O=C(O)c1ncccc1O.[O]=[V][O-] [VO-OHpic]
- inhibition of PTEN (PTEN): potent inhibition
- reduction in cell death (cell death; I/R injury): almost four-fold reduction
- phosphorylated Akt (cell death): significant increase
- blood sorbitol concentration (mouse model of SCA [5]): reduced
- blood taurine concentration (mouse model of SCA [5]): reduced
- recovery and survival (mouse model of SCA [6]): improved recovery and survival
